{
  "source": "paper PMC7902631",
  "about": "“An ESCRT-dependent step in fatty acid transfer from lipid droplets to mitochondria through VPS13D−TSG101 interactions” (Nature Communications, 2021)",
  "key": {"[1]": {"molecular_target": "T1, VPS13D-LTD (Homo sapiens, UniProt Q5THJ4)", "T1 construct": "lipid transfer domain, residues 1-320; pET28a-6xHis-SUMO fusion, tag cleavage not mentioned; expressed in E. coli (DE3), Ni-NTA purified", "T1 sequence (Q5THJ4 1-320)": "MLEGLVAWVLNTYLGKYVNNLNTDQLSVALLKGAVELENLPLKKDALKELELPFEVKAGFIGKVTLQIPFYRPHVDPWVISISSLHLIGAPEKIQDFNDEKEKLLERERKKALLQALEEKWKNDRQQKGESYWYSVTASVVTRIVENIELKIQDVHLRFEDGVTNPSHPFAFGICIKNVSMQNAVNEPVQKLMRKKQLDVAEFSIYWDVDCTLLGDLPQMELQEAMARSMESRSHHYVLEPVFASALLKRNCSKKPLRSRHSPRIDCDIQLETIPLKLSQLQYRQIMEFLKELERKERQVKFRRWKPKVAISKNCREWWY", "assay": "native PAGE co-migration, fluorescence", "type": "binding", "settings": "labelled compound; 4 °C, 3 h; 1.5 mg/ml protein"}, "[2]": {"molecular_target": "T1, VPS13D-LTD", "assay": "competition with BODIPY-C16, native PAGE", "type": "binding", "settings": "unlabeled, non-BSA-conjugated palmitic acid; competitor of BODIPY-C16"}, "[3]": {"molecular_target": "VAB-ΔPSAP-GFP (human)", "assay": "co-IP; GFP-Trap agarose beads (ChromoTek) on lysates of HEK293 cells, by the manufacturer's protocol; GFP-tagged protein held, partner detected by western blot (anti-TSG101 or anti-Halo); 5% input"}},
  "data": [
    {"molecule": "O=C(O)CCCCCCCCCCCNc1ccc([N+](=O)[O-])c2nonc12", "note": "[C12, NBD-C12]", "values": [
      {"measurement": "native PAGE co-migration, fluorescence", "setting": "[1]", "value": "purified VPS13D-LTD could bind NBD-labeled fatty acids C12 (NBD-C12)"}
    ]},
    {"molecule": "CCCCCCCCCCCCCCCC(=O)O", "note": "[palmitic acid]", "values": [
      {"measurement": "competition with BODIPY-C16, native PAGE", "setting": "[2]", "value": "palmitic acid, but not OA, could sufficiently outcompete BODIPY-C16 for binding to VPS13D-LTD"}
    ]},
    {"molecule": "Halo-TSG101 (from UniProt Q99816 1-390) (natural protein)", "values": [
      {"measurement": "reduction of the interaction against VAB-GFP", "setting": "[3]", "value": 60, "unit": "%"}
    ]}
  ]
}
